Tested on: HSV-1
Test: HSV-1 replication in Vero 76 cells, DNA hybridization capture assay
Format: cell-based, herpes simplex virus 1
Conditions: Human alphaherpesvirus 1; HSV-1 infected Vero 76 cells, MOI=0.001, 40–48 hours incubation, viral DNA detected by hybridization/chemiluminescence
Description: Vero 76 cells were maintained in MEM with Earle's salts, L-glutamine, 8% FBS (Hyclone, A-1111-L) and 100 units/mL Penicillin-100 μg/mL Streptomycin. For assay conditions, FBS was reduced to 2%. Cells are seeded into 96-well tissue culture plates at a density of 5×10^4 cells/well after being incubated for 45 min at 37° C. in the presence of HSV-1 or HSV-2 (MOI=0.001). Test compounds are added to the wells and the plates are incubated at 37° C. for 40–48 hours. Cell lysates are prepared as follows: media was removed and replaced with 150 μL/well 0.2 N NaOH with 1% Igepal CA 630 or NP-40. Plates were incubated up to 14 days at room temperature in a humidified chamber to prevent evaporation.
For the detection probe, a gel-purified, digoxigenin-labeled, 710-bp PCR fragment of the HSV UL-15 sequence was utilized. PCR conditions included 0.5 μM primers, 180 μM dTTP, 20 μM dUTP-digoxigenin (Boehringer Mannheim 1558706), 200 μM each of dATP, dCTP, and dGTP, 1×PCR Buffer II (Perkin Elmer), 2.5 mM MgCl2, 0.025 units/μL of AmpliTaq Gold polymerase (Perkin Elmer), and 5 ng of gel-purified HSV DNA per 100 μL Extension conditions were 10 min at 95° C., followed by 30 cycles of 95° C. for 1 min, 55° C. for 30 sec, and 72° C. for 2 min. The amplification was completed with a 10-min incubation at 72° C. Primers were selected to amplify a 728 bp probe spanning a section of the HSV1 UL15 open reading frame (nucleotides 249–977). Single-stranded transcripts were purified with Promega M13 Wizard kits. The final product was mixed 1:1 with a mixture of 6 M GuSCN, 100 mM EDTA and 200 μg/mL herring sperm DNA and stored at 4° C.
The capture DNA plasmid (HSV UL13 region in pUC) was linearized by cutting with Xba I, denatured for 15 min at 95° C. and diluted immediately into Reacti-Bind DNA Coating Solution (Pierce, 17250, diluted 1:1 with TE buffer, pH 8) at 1 ng/μL 75 μL/well were added to Corning (#3922 or 9690) white 96-well plates and incubated at room temperature for at least 4 hrs before washing twice with 300 μL/well 0.2×SSC/0.05% Tween-20 (SSC/T buffer). The plates were then incubated overnight at room temperature with 150 μL/well 0.2 N NaOH, 1% IGEPAL and 10 μg/mL herring sperm DNA.
Twenty-seven (27) μL of cell lysate was combined with […] of hybridization solution (final concentration: 3M GuSCN, 50 mM EDTA, 100 μg/ml salmon sperm DNA, 5× Denhardt's solution, 0.25×APE, and 5 ng of the digoxigenin-labeled detection probe). APE is 1.5 M NH4-acetate, 0.15 M ammonium phosphate monobasic, and 5 mM EDTA adjusted to pH 6.0. Mineral oil (50 μL) was added to prevent evaporation. The hybridization plates were incubated at 95° C. for 10 minutes to denature the DNA, then incubated at 42° C. overnight. The wells were washed 6× with 300 μL/well SSC/T buffer then incubated with […] anti-digoxigenin-HRP-conjugated antibody (Boehringer Mannheim 1207733, 1:5000 in TE) for 30 min at room temperature. The wells were washed 6× with 300 μL/well with PBS/0.05% Tween-20 before 75 μL/well SuperSignal LBA substrate (Pierce) was added. The plates were incubated at room temperature for 30 minutes and chemiluminescence was measured in a Wallac Victor reader.

`COc1cccc(-c2nc3c(Cl)cccn3c2-c2ccnc(Nc3ccccc3)n2)c1` [Example 1, 4-[8-Chloro-2-(3-methoxyphenyl)imidazo[1,2-α]pyridin-3-yl]-N-phenylpyrimidin-2-amine] was tested. Which IC50 did it give?
The IC50 was 1.46 µM.

With `COc1cccc(-c2nc3c(NC4CCCC4)cccn3c2-c2ccnc(NC3CCCC3)n2)c1` [Example 2, N-Cyclopentyl-3-[2-(cyclopentylamino)-4-pyrimidinyl]-2-(3-methoxyphenyl)imidazo[1,2-α]pyridin-8-amine] as the molecule, how does the IC50 read?
The IC50 was 0.35 µM.

With `Cc1ccc(-c2nc3c(Cl)cccn3c2-c2ccnc(Nc3ccccc3)n2)cc1` [Example 3, 4-[8-Chloro-2-(4-methylphenyl)imidazo[1,2-α]pyridin-3-yl]-N-phenylpyrimidin-2-amine] as the molecule, how does the IC50 read?
Its IC50 is 3.52 µM.

For `Cc1ccc(-c2nc3c(NC4CCCC4)cccn3c2-c2ccnc(Nc3ccccc3)n2)cc1` [Example 4, 3-(2-Anilino-4-pyrimidinyl)-N-cyclopentyl-2-(4-methylphenyl)imidazo[1,2-α]pyridin-8-amine], which IC50 is on record?
Its IC50 is 3.54 µM.

With `O=[N+]([O-])c1cccc(-c2nc3c(Cl)cccn3c2-c2ccnc(Nc3ccc(F)cc3)n2)c1` [Example 5, 4-[8-Chloro-2-(3-nitrophenyl)imidazo[1,2-α]pyridin-3-yl]-N-(4-fluorophenyl)pyrimidin-2-amine] as the molecule, how does the IC50 read?
Its IC50 is 2.23 µM.

Reference: patent publication US7244740B2, “Imidazo-pyridine derivatives for use in the treatment of herpes viral infection” (SmithKline Beecham Corporation, priority 2001, dated 2007)
